Measurements taken from ChEMBL document CHEMBL3044741, “Synthesis of novel biologically active methylene derivatives of sydnones” (Med Chem Res, 2013).
In brackets after ≈: the same amount, converted by molar mass.

Tests used:
UACC-257 = assay: Cytotoxicity against human UACC257 assessed as cell growth at high concentration; type: functional
A549 = assay: Cytotoxicity against human A549 assessed as cell growth at high concentration; type: functional
Aspergillus clavatus [1] = assay: Antifungal activity against Aspergillus clavatus MTCC 1323 at 250 ug/ml after 74 hrs by Kirby-Bauer method; type: functional; details: MTCC 1323, 74 h, read-out: IZ
Cytomegalovirus [2] = assay: Antiviral activity against Cytomegalovirus AD-169 infected in HEL cells assessed as reduction in plaque formation; type: functional, organism-based; details: Human betaherpesvirus 5, AD-169, HEL
Pseudomonas aeruginosa [3] = assay: Antibacterial activity against Pseudomonas aeruginosa MTCC 424 after 24 hrs by broth dilution method; type: functional; details: MTCC 424, 24 h
LOX IMVI = assay: Cytotoxicity against human LOXIMVI assessed as cell growth at high concentration; type: functional
HCT-15 = assay: Cytotoxicity against human HCT15 assessed as cell growth at high concentration; type: functional
MDA-MB-231 = assay: Cytotoxicity against human MDA-MB-231 assessed as cell growth at high concentration; type: functional
Aspergillus niger [4] = assay: Antifungal activity against Aspergillus niger MTCC 282; type: functional
EKVX = assay: Cytotoxicity against human EKVX assessed as cell growth at high concentration; type: functional
SNB-19 = assay: Cytotoxicity against human SNB19 assessed as cell growth at high concentration; type: functional
Human alphaherpesvirus 3 = assay: Antiviral activity against thymidine kinase-deficient Varicella-zoster virus infected in HEL cells assessed as reduction in plaque formation; type: functional, organism-based; details: Human alphaherpesvirus 3, HEL
BT-549 = assay: Cytotoxicity against human BT549 assessed as cell growth at high concentration; type: functional
Aspergillus niger [5] = assay: Antifungal activity against Aspergillus niger MTCC 282 at 250 ug/ml after 74 hrs by Kirby-Bauer method; type: functional; details: MTCC 282, 74 h, read-out: IZ
MOLT-4 = assay: Cytotoxicity against human MOLT4 assessed as cell growth at high concentration; type: functional
SF-268 = assay: Cytotoxicity against human SF268 assessed as cell growth at high concentration; type: functional
Candida albicans = assay: Antifungal activity against Candida albicans MTCC 227 at 250 ug/ml after 74 hrs by Kirby-Bauer method; type: functional; details: MTCC 227, 74 h, read-out: IZ
[6] = Selectivity index, ratio of CC50 for human MT4 cells to IC50 for HIV1 3B; type: functional
[7] = system: Human immunodeficiency virus 1; assay: Antiviral activity against HIV1 3B infected in MT4 cells assessed as inhibition of virus-induced cytopathogenicity by MTT assay; type: functional, organism-based; details: Human immunodeficiency virus 1, 3B
MCF7 = assay: Cytotoxicity against human MCF7 assessed as cell growth at high concentration; type: functional
Pseudomonas aeruginosa [8] = assay: Antibacterial activity against Pseudomonas aeruginosa MTCC 424 at 250 ug/ml after 24 hrs by Kirby-Bauer method; type: functional; details: MTCC 424, 24 h, read-out: IZ
T47D = assay: Cytotoxicity against human T47D assessed as cell growth at high concentration; type: functional
NCI-H460 = assay: Cytotoxicity against human NCI-H460 assessed as cell growth at high concentration; type: functional
SNB-75 = assay: Cytotoxicity against human SNB75 assessed as cell growth at high concentration; type: functional
[9] = Cytotoxicity against human HEL cells assessed as alteration in cell morphology; type: cell-based
[10] = Cytotoxicity against human HEL cells; type: cell-based
OVCAR-8 = assay: Cytotoxicity against human OVCAR8 assessed as cell growth at high concentration; type: functional
Streptococcus pyogenes [11] = assay: Antibacterial activity against Streptococcus pyogenes MTCC 442 at 250 ug/ml after 24 hrs by Kirby-Bauer method; type: functional; details: MTCC 442, 24 h, read-out: IZ
NCI-H23 = assay: Cytotoxicity against human NCI-H23 assessed as cell growth at high concentration; type: functional
Hs-578T = assay: Cytotoxicity against human Hs 578T assessed as cell growth at high concentration; type: functional
Staphylococcus aureus [12] = assay: Antibacterial activity against Staphylococcus aureus MTCC 96 after 24 hrs by broth dilution method; type: functional; details: MTCC 96, 24 h
CCRF-CEM = assay: Cytotoxicity against human CCRF-CEM assessed as cell growth at high concentration; type: functional
OVCAR-4 = assay: Cytotoxicity against human OVCAR4 assessed as cell growth at high concentration; type: functional
Cytomegalovirus [13] = assay: Antiviral activity against Cytomegalovirus Davis in HEL cells assessed as reduction in plaque formation; type: functional, organism-based; details: Human betaherpesvirus 5, Davis
COLO 205 = assay: Cytotoxicity against human COLO205 assessed as cell growth at high concentration; type: functional
Malme-3M = assay: Cytotoxicity against human MALME-3M assessed as cell growth at high concentration; type: functional
U-251 = assay: Cytotoxicity against human U251 assessed as cell growth at high concentration; type: functional
SK-MEL-5 = assay: Cytotoxicity against human SK-MEL-5 assessed as cell growth at high concentration; type: functional
RPMI-8226 = assay: Cytotoxicity against human RPMI8226 assessed as cell growth at high concentration; type: functional
NCI-H322M = assay: Cytotoxicity against human NCI-H322M assessed as cell growth at high concentration; type: functional
MDA-MB-468 = assay: Cytotoxicity against human MDA-MB-468 assessed as cell growth at high concentration; type: functional
HCT-116 = assay: Cytotoxicity against human HCT116 assessed as cell growth at high concentration; type: functional
Aspergillus clavatus [14] = assay: Antifungal activity against Aspergillus clavatus MTCC 1323; type: functional
SK-MEL-28 = assay: Cytotoxicity against human SK-MEL-28 assessed as cell growth at high concentration; type: functional
SN12C = assay: Cytotoxicity against human SN12C assessed as cell growth at high concentration; type: functional
HOP-62 = assay: Cytotoxicity against human HOP62 assessed as cell growth at high concentration; type: functional
TK-10 = assay: Cytotoxicity against human TK10 assessed as cell growth at high concentration; type: functional
[15] = Cytotoxicity against human NCI-ADR-RES assessed as cell growth at high concentration; type: functional
Escherichia coli = assay: Antibacterial activity against Escherichia coli MTCC 443 at 250 ug/ml after 24 hrs by Kirby-Bauer method; type: functional; details: MTCC 443, 24 h, read-out: IZ
Staphylococcus aureus [16] = assay: Antibacterial activity against Staphylococcus aureus MTCC 96 at 250 ug/ml after 24 hrs by Kirby-Bauer method; type: functional; details: MTCC 96, 24 h, read-out: IZ
Streptococcus pyogenes [17] = assay: Antibacterial activity against Streptococcus pyogenes MTCC 442 after 24 hrs by broth dilution method; type: functional; details: MTCC 442, 24 h
SW-620 = assay: Cytotoxicity against human SW620 assessed as cell growth at high concentration; type: functional
[18] = Selectivity index, ratio of CC50 for human MT4 cells to IC50 for HIV2 ROD; type: functional
DU-145 = assay: Cytotoxicity against human DU145 assessed as cell growth at high concentration; type: functional
SF-539 = assay: Cytotoxicity against human SF539 assessed as cell growth at high concentration; type: functional

Compound `Cc1ccc(-[n+]2noc([O-])c2CN2CCN(c3cccc(Cl)c3)CC2)cc1` has an Activity (UACC-257) of 93.49%, an Activity (A549) of 96.53% and a zone of inhibition at 250 µg/mL (Aspergillus clavatus [1]) of 24 mm. The EC50 (Cytomegalovirus [2]) was 15.3 mg/L (≈ 39.8 µM), the MIC (Pseudomonas aeruginosa [3]) was 150 mg/L (≈ 390 µM) and the Activity (LOX IMVI) was 99.09%. For the same compound, the Activity (HCT-15) was 77.65%, the Activity (MDA-MB-231) was 75.33% and the MIC (Aspergillus niger [4]) was 500 mg/L (≈ 1300 µM). For the same compound, the Activity (EKVX) was 88.38%, the Activity (SNB-19) was 99.85% and the EC50 (Human alphaherpesvirus 3) was greater than 20 mg/L. The Activity (BT-549) was 98.47%, the zone of inhibition at 250 µg/mL (Aspergillus niger [5]) was 23 mm and the Activity (MOLT-4) was 88.5%. The Activity (SF-268) was 88.36%, the zone of inhibition at 250 µg/mL (Candida albicans) was 21 mm and the “Ratio CC50/IC50” value [6] was less than 1. It also gave an IC50 [7] greater than 27.4 mg/L, an Activity (MCF7) of 92.1% and a zone of inhibition at 250 µg/mL (Pseudomonas aeruginosa [8]) of 21 mm. For the same compound, the Activity (T47D) was 72.96%, the Activity (NCI-H460) was 89.39% and the Activity (SNB-75) was 99.33%. For the same compound, the MCC [9] was 100 µg/mL, the CC50 [10] was 38.2 mg/L (≈ 99.3 µM) and the Activity (OVCAR-8) was 94.91%. For the same compound, the zone of inhibition at 250 µg/mL (Streptococcus pyogenes [11]) was 20 mm, the Activity (NCI-H23) was 95.83% and the Activity (Hs-578T) was 92.29%. It also gave an MIC (Staphylococcus aureus [12]) of 62.5 mg/L (≈ 162 µM), an Activity (CCRF-CEM) of 72.82% and an Activity (OVCAR-4) of 89.31%. For the same compound, the EC50 (Cytomegalovirus [13]) was greater than 20 mg/L, the Activity (COLO 205) was 89.45% and the Activity (Malme-3M) was 95.22%. It also gave an Activity (U-251) of 82.08%, an Activity (SK-MEL-5) of 95.3% and an Activity (RPMI-8226) of 72.54%. It also gave an Activity (NCI-H322M) of 106.64%, an Activity (MDA-MB-468) of 80.15% and an Activity (HCT-116) of 82.24%. For the same compound, the MIC (Aspergillus clavatus [14]) was 200 mg/L (≈ 520 µM), the Activity (SK-MEL-28) was 98.44% and the Activity (SN12C) was 87.71%. The Activity (HOP-62) was 86.8%, the Activity (TK-10) was 119.81% and the Activity [15] was 97.44%. The zone of inhibition at 250 µg/mL (Escherichia coli) was 22 mm, the zone of inhibition at 250 µg/mL (Staphylococcus aureus [16]) was 22 mm and the MIC (Streptococcus pyogenes [17]) was 125 mg/L (≈ 325 µM). For the same compound, the Activity (SW-620) was 92.74%, the “Ratio CC50/IC50” value [18] was less than 1 and the Activity (DU-145) was 95.5%. It also gave an Activity (SF-539) of 92.15%.
For `Cc1ccc(-[n+]2noc([O-])c2CN2CCNCC2)cc1`, the Activity (UACC-257) was 96.41%, the Activity (A549) was 99.61% and the zone of inhibition at 250 µg/mL (Aspergillus clavatus [1]) was 24 mm. The EC50 (Cytomegalovirus [2]) was greater than 20 mg/L, the MIC (Pseudomonas aeruginosa [3]) was 50 mg/L (≈ 182 µM) and the Activity (LOX IMVI) was 92.56%. It also gave an Activity (HCT-15) of 102.72%, an Activity (MDA-MB-231) of 86.16% and an MIC (Aspergillus niger [4]) of 200 mg/L (≈ 729 µM). It also gave an Activity (EKVX) of 104.33%, an Activity (SNB-19) of 103.47% and an EC50 (Human alphaherpesvirus 3) greater than 20 mg/L. It also gave an Activity (BT-549) of 110.58%, a zone of inhibition at 250 µg/mL (Aspergillus niger [5]) of 25 mm and an Activity (MOLT-4) of 117.17%. The Activity (SF-268) was 95.92%, the zone of inhibition at 250 µg/mL (Candida albicans) was 21 mm and the “Ratio CC50/IC50” value [6] was less than 1. For the same compound, the IC50 [7] was greater than 32.6 mg/L, the Activity (MCF7) was 90.74% and the zone of inhibition at 250 µg/mL (Pseudomonas aeruginosa [8]) was 23 mm. The Activity (T47D) was 106.04%, the Activity (NCI-H460) was 95.72% and the Activity (SNB-75) was 145.71%. For the same compound, the MCC [9] was 100 µg/mL, the CC50 [10] was 46 mg/L (≈ 168 µM) and the Activity (OVCAR-8) was 104.3%. It also gave a zone of inhibition at 250 µg/mL (Streptococcus pyogenes [11]) of 17 mm, an Activity (NCI-H23) of 101.63% and an Activity (Hs-578T) of 101.05%. For the same compound, the MIC (Staphylococcus aureus [12]) was 200 mg/L (≈ 729 µM), the Activity (CCRF-CEM) was 102.79% and the Activity (OVCAR-4) was 114.7%. For the same compound, the EC50 (Cytomegalovirus [13]) was greater than 20 mg/L, the Activity (COLO 205) was 99.98% and the Activity (Malme-3M) was 109.79%. For the same compound, the Activity (U-251) was 91.33%, the Activity (SK-MEL-5) was 100.25% and the Activity (RPMI-8226) was 100.12%. For the same compound, the Activity (NCI-H322M) was 103.75%, the Activity (MDA-MB-468) was 101.9% and the Activity (HCT-116) was 108.38%. The MIC (Aspergillus clavatus [14]) was 200 mg/L (≈ 729 µM), the Activity (SK-MEL-28) was 105.58% and the Activity (SN12C) was 91.43%. The Activity (HOP-62) was 90.65%, the Activity (TK-10) was 102.68% and the Activity [15] was 99.62%. It also gave a zone of inhibition at 250 µg/mL (Escherichia coli) of 21 mm, a zone of inhibition at 250 µg/mL (Staphylococcus aureus [16]) of 17 mm and an MIC (Streptococcus pyogenes [17]) of 500 mg/L (≈ 1820 µM). For the same compound, the Activity (SW-620) was 96.29%, the “Ratio CC50/IC50” value [18] was less than 1 and the Activity (DU-145) was 102.16%. It also gave an Activity (SF-539) of 101.2%.
